Where “and” joins values, the source holds several entries; their conditions need not be identical. Equal values may be shown once. Read-outs that look alike come from different tables or passages of the source.
Legend:
[1] = logP determination by HPLC on reversed-phase (C18) columns, OECD Guideline 117; type: physicochemical
Text: Die Eichung erfolgt mit unverzweigten Alkan-2-onen (mit 3 bis 16 Kohlenstoffatomen), deren logP-Werte bekannt sind (Bestimmung der logP-Werte anhand der Retentionszeiten durch lineare Interpolation zwischen zwei aufeinander folgenden Alkanonen).

Diabrotica balteata = Diabrotica balteata spray test; type: in vivo; conditions: 500 g/ha (=160 µg/Kavität); wheat (Triticum aestivum) with beetle larvae; after 7 days; 100 % = all wheat plants grown as in untreated, uninfected control
Text: (§1) Zur Herstellung einer zweckmäßigen Wirkstoffzubereitung löst man 1 Gewichtsteil Wirkstoff mit den angegebenen Gewichtsteilen Lösungsmittel und füllt mit Wasser, welches eine Emulgatorkonzentration von 1000 ppm enthält, bis zum Erreichen der gewünschten Konzentration auf. Zur Herstellung weiterer Testkonzentrationen wird mit emulgatorhaltigem Wasser verdünnt.
Vorgequollene Weizenkörner (Triticum aestivum) werden in einer mit Agar und etwas Wasser gefüllten Multiwell-Platte für einen Tag inkubiert (5 Saatkörner pro Kavität). Die gekeimten Weizenkörner werden mit einer Wirkstoffzubereitung der gewünschten Konzentration gespritzt. Anschließend wird jede Kavität mit 10-20 Käferlarven von Diabrotica balteata infiziert.
Nach 7 Tagen wird die Wirkung in % bestimmt. Dabei bedeutet 100 %, dass alle Weizenpflanzen wie in der unbehandelten, nicht infizierten Kontrolle gewachsen sind; 0 % bedeutet, dass keine Weizenpflanze gewachsen ist.

Myzus persicae [2] = assay: Myzus persicae spray test; type: in vivo; conditions: 100 g/ha; Chinese cabbage leaf discs (Brassica pekinensis), all stages; after 5 days
Text: Bei diesem Test zeigten z. B. die folgenden Verbindungen der Herstellungsbeispiele Wirkung von 100 % bei einer Aufwandmenge von 20 ppm: 1. Myzus persicae - Sprühtest
as §1
Chinakohlblattscheiben (Brassica pekinensis), die von allen Stadien der Grünen Pfirsichblattlaus (Myzus persicae) befallen sind, werden mit einer Wirkstoffzubereitung der gewünschten Konzentration gespritzt.
(§2) Nach 5 Tagen wird die Wirkung in % bestimmt. Dabei bedeutet 100 %, dass alle Blattläuse abgetötet wurden; 0 % bedeutet, dass keine Blattläuse abgetötet wurden.

Ctenocephalides felis = Ctenocephalides felis oral test; type: in vivo; conditions: 100 ppm in citrated cattle blood; adult cat fleas; after 2 days
Method: Ctenocephalides felis - Oraltest
Zwecks Herstellung einer zweckmäßigen Wirkstoffzubereitung vermischt man 10 mg Wirkstoff mit 0,5 ml Dimethylsulfoxid. Durch Verdünnen mit citriertem Rinderblut erhält man die gewünschte Konzentration.
Ca. 20 nüchterne adulte Katzenflöhe (Ctenocephalides felis) werden in eine Kammer eingesetzt, die oben und unten mit Gaze verschlossen ist. Auf die Kammer wird ein Metallzylinder gestellt, dessen Unterseite mit Parafilm verschlossen ist. Der Zylinder enthält die Blut-Wirkstoffzubereitung, die von den Flöhen durch die Parafilmmembran aufgenommen werden kann.
Nach 2 Tagen wird die Abtötung in % bestimmt. Dabei bedeutet 100 %, dass alle Flöhe abgetötet wurden; 0 % bedeutet, dass keiner der Flöhe abgetötet wurde.

Myzus persicae [3] = assay: Myzus persicae oral test; type: in vivo; conditions: 20 ppm; mixed population, uptake through Parafilm; after 5 days
Method: Bei diesem Test zeigten z. B. die folgenden Verbindungen der Herstellungsbeispiele Wirkung von 100 % bei einer Aufwandmenge von 500 g/ha (=160 µg/Kavität): 1, 2, 3, 5, 6, 7, 8, 9, 10, 11, 12. Myzus persicae - Oraltest
Zur Herstellung einer zweckmäßigen Wirkstoffzubereitung löst man 1 Gewichtsteil Wirkstoff mit den angegebenen Gewichtsteilen Lösungsmittel und füllt mit Wasser bis zum Erreichen der gewünschten Konzentration auf.
50 µl der Wirkstoffzubereitung werden in Mikrotiterplatten überführt und mit 150µl IPL41Insektenmedium (33% + 15% Zucker) auf eine Endvolumen von 200 µl aufgefüllt. Anschließend werden die Platten mit Parafilm verschlossen, durch den eine gemischte Population der Grünen Pfirsichblattlaus (Myzus persicae), die sich in einer zweiten Mikrotiterplatte befindet, hindurchstechen und die Lösung aufnehmen kann.
as §2

Nezara viridula = Nezara viridula spray test; type: in vivo; conditions: 500 g/ha; barley plants (Hordeum vulgare) with larvae; after 4 days
Text: Bei diesem Test zeigten z. B. die folgenden Verbindungen der Herstellungsbeispiele Wirkung von 90 % bei einer Aufwandmenge von 100 g/ha: 1, 5, 6, 9. Nezara viridula -Sprühtest
as §1
Gerstenpflanzen (Hordeum vulgare), die mit Larven der Grünen Reiswanze (Nezara viridula) infiziert sind, werden mit einer Wirkstoffzubereitung der gewünschten Konzentration gespritzt.
Nach 4 Tagen wird die Wirkung in % bestimmt. Dabei bedeutet 100 %, dass alle Reiswanzen abgetötet wurden; 0 % bedeutet, dass keine Reiswanzen abgetötet wurden.

Nilaparvata lugens = Nilaparvata lugens test; type: in vivo; conditions: 500 g/ha; rice plants (Oryza sativa); after 4 days
Text: Bei diesem Test zeigten z. B. die folgenden Verbindungen der Herstellungsbeispiele Wirkung von 90 % bei einer Aufwandmenge von 500 g/ha: 1. Nilaparvata lugens -Test
as §1
Reispflanzen (Oryza sativa) werden mit der Wirkstoffzubereitung der gewünschten Konzentration gespritzt und anschließend mit der Braunrückigen Reiszikade (Nilaparvata lugens) infiziert.
Nach 4 Tagen wird die Wirkung in % bestimmt. Dabei bedeutet 100 %, dass alle Reiszikaden abgetötet wurden; 0 % bedeutet, dass keine Reiszikaden abgetötet wurden.

Phaedon cochleariae = Phaedon cochleariae spray test; type: in vivo; conditions: 500 g/ha; Chinese cabbage leaf discs (Brassica pekinensis), larvae; after 7 days
Text: Bei diesem Test zeigten z. B. die folgenden Verbindungen der Herstellungsbeispiele Wirkung von 100 % bei einer Aufwandmenge von 500 g/ha: 1. Phaedon cochleariae - Sprühtest
as §1
Chinakohlblattscheiben (Brassica pekinensis) werden mit einer Wirkstoffzubereitung der gewünschten Konzentration gespritzt und nach dem Abtrocknen mit Larven des Meerrettichblattkäfers (Phaedon cochleariae) besetzt.
Nach 7 Tagen wird die Wirkung in % bestimmt. Dabei bedeutet 100 %, dass alle Käferlarven abgetötet wurden; 0 % bedeutet, dass keine Käferlarven abgetötet wurden.

Tetranychus urticae = Tetranychus urticae spray test, OP-resistant; type: in vivo; conditions: 500 g/ha; bean leaf discs (Phaseolus vulgaris), all stages, OP-resistent; after 6 days
Text: Bei diesem Test zeigten z. B. die folgenden Verbindungen der Herstellungsbeispiele Wirkung von 100 % bei einer Aufwandmenge von 500 g/ha: 1. Tetranychus urticae - Sprühtest, OP-resistent
as §1
Bohnenblattscheiben (Phaseolus vulgaris), die von allen Stadien der Gemeinen Spinnmilbe (Tetranychus urticae) befallen sind, werden mit einer Wirkstoffzubereitung der gewünschten Konzentration gespritzt.
Nach 6 Tagen wird die Wirkung in % bestimmt. Dabei bedeutet 100 %, dass alle Spinnmilben abgetötet wurden; 0 % bedeutet, dass keine Spinnmilben abgetötet wurden.

[4] = HPLC-MS/UPLC-MS neutral (method [b], pH 7,8)
[5] = pH 7.8, HPLC-MS/UPLC-MS neutral (method [b], pH 7,8), read-out: LogP-Wert
[6] = HPLC-MS (ESI-positiv), acidic or neutral range not given
[7] = reversed-phase (C18) HPLC column, HPLC-MS (ESI-positiv), acidic or neutral range not given, read-out: LogP-Wert

N=C(N=c1ccccn1-c1ccc(C(F)(F)F)nc1)SCC(=O)C(F)(F)F [N-[1-[(6-trifluormethyl-3-pyridyl)]-2-pyridyliden]-imidothio-(3,3,3-trifluoro-2-oxopropyl)-ester]
LogP-Wert [1, 4]: 2,39
chromatographic logP [1, 5]: 2.37

N#CC1(c2csc(N=c3ccccn3-c3ccc(C(F)F)nc3)n2)CC1 [Beispiel 12]
chromatographic logP ([1]; pH 7.8, LogP-Wert (neutral)): 2.65
Wirkung in % (Diabrotica balteata): 100%

FC(F)c1ccc(-n2ccccc2=S)cn1 [II-2, 6'-Difluormethyl-[1(2H), 3'-bipyridin]-2-thion]
LogP-Wert [1]: 1,23
chromatographic logP ([1]; LogP-Wert): 1.18

FC(F)c1ccc(-n2ccccc2=Nc2nc(C3(F)CC3)cs2)cn1 [Beispiel 2]
LogP-Wert [1, 4]: LogP-Wert = 3,02
Wirkung in % (Diabrotica balteata): 100%

FC(F)(F)c1ccc(-n2ccccc2=S)cn1 [II-1, 6'-Trifluormethyl-[1(2H), 3'-bipyridin]-2-thion]
chromatographic logP [1, 5]: 1.67

FC(F)(F)c1ccc(-n2ccccc2=Nc2nc(C3(F)CC3)cs2)cn1 [Beispiel 9]
chromatographic logP ([1]; pH 2.7, LogP-Wert (HCOOH)): 2.04
Wirkung in % (Diabrotica balteata): 100%
Wirkung in % (Myzus persicae [2]): 90%

FC(F)(F)c1ccc(-n2ccccc2=Nc2nc(C3CC3)cs2)cn1 [Beispiel 6]
chromatographic logP ([1]; pH 2.7, LogP-Wert (HCOOH)): 1.34
Wirkung in % (Diabrotica balteata): 100%
Wirkung in % (Myzus persicae [2]): 90%

CCOC(=O)NC(=S)N=c1ccccn1-c1ccc(C(F)F)nc1 [VI-2, Ethyl N-[1-[(6-difluormethyl-3-pyridyl)]-2-pyridylidene]carbamothioylcarbamat]
chromatographic logP ([1]; pH 7.8, LogP-Wert): 1.28

CCc1csc(N=c2ccccn2-c2ccc(C(F)(F)F)nc2)n1 [Beispiel 5]
chromatographic logP ([1]; pH 2.7, LogP-Wert (HCOOH)): 1.13
Wirkung in % (Diabrotica balteata): 100%
Wirkung in % (Myzus persicae [2]): 90%

FC(F)(F)c1ccc(-n2ccccc2=Nc2ncccn2)cn1 [Beispiel 4, 1-[(6-Trifluormethyl-3-pyridyl]-N-(pyrimid-2-yl))pyridin-2-imin]
LogP-Wert [1, 6]: LogP-Wert = 1,38

NC(=S)N=c1ccccn1-c1ccc(C(F)(F)F)nc1 [VII-1, N-[1-[(6-Trifluormethyl-3-pyridinyl)]-2(1H)-pyridinyliden]-thioharnstoff]
LogP-Wert [1, 6]: 1,12 and 1,14

NC(=S)N=c1ccccn1-c1ccc(C(F)F)nc1 [VII-2, N-[1-[(6-Difluormethyl-3-pyridinyl)]-2(1H)-pyridinyliden]-thioharnstoff]
chromatographic logP ([1]; pH 7.8, LogP-Wert): 0.7

N=c1ccccn1-c1ccc(C(F)(F)F)nc1 [IV-1, 6'-Trifluormethyl-[1(2H), 3'-bipyridin]-2-imin-hydrogeniodid]
chromatographic logP [1, 7]: 2.17

CSc1cccc[n+]1-c1ccc(C(F)F)nc1 [III-2]
chromatographic logP ([1]; LogP-Wert): 0.04

Cc1csc(N=c2ccccn2-c2ccc(C(F)(F)F)nc2)n1 [Beispiel 1]
LogP-Wert [1, 6]: LogP-Wert = 1,08
Abtötung in % (Wirkung) (Ctenocephalides felis): 80%
Wirkung in % (Diabrotica balteata): 100%
Wirkung in % (Myzus persicae [3]): 100%
Wirkung in % (Myzus persicae [2]): 90%
Wirkung in % (Nezara viridula): 90%
Wirkung in % (Nilaparvata lugens): 100%
Wirkung in % (Phaedon cochleariae): 100%
Wirkung in % (Tetranychus urticae): 90%

FC(F)(F)c1ccc(-n2ccccc2=Nc2nc(C(F)(F)C(F)(F)F)cs2)cn1 [Beispiel 7]
chromatographic logP ([1]; pH 2.7, LogP-Wert (HCOOH)): 4.03
Wirkung in % (Diabrotica balteata): 100%

N#CC1(c2csc(N=c3ccccn3-c3ccc(C(F)(F)F)nc3)n2)CC1 [Beispiel 8]
chromatographic logP ([1]; pH 2.7, LogP-Wert (HCOOH)): 2.39
Wirkung in % (Diabrotica balteata): 100%
Wirkung in % (Myzus persicae [2]): 100%

CSc1cccc[n+]1-c1ccc(C(F)(F)F)nc1 [III-1]
chromatographic logP [1, 7]: 0.57

CC1(c2csc(N=c3ccccn3-c3ccc(C(F)(F)F)nc3)n2)CC1 [Beispiel 10]
chromatographic logP ([1]; pH 7.8, LogP-Wert (neutral)): 3.99
Wirkung in % (Diabrotica balteata): 100%

CCOC(=O)NC(=S)N=c1ccccn1-c1ccc(C(F)(F)F)nc1 [VI-1, Ethyl N-[1-[(6-trifluormethyl-3-pyridyl)]-2-pyridylidene]carbamothioylcarbamat]
chromatographic logP ([1]; pH 7.8, LogP-Wert): 1.71

CC(C)(C)c1csc(N=c2ccccn2-c2ccc(C(F)(F)F)nc2)n1 [Beispiel 11]
chromatographic logP ([1]; pH 2.7, LogP-Wert (HCOOH)): 1.47
Wirkung in % (Diabrotica balteata): 100%

FC(F)(F)c1ccc(-n2ccccc2=Nc2nc(C(F)(F)F)cs2)cn1 [Beispiel 3, 1-[(6-Trifluormethyl-3-pyridyl]-N-(4-trifluormethylthiazol-2-yl))pyridin-2-imin]
LogP-Wert [1, 6]: LogP-Wert = 3,60
Wirkung in % (Diabrotica balteata): 100%
Wirkung in % (Myzus persicae [2]): 100%

— patent publication EP3771714A1, “NITROGEN-CONTAINING HETEROCYCLES AS PESTICIDES” (Bayer AG, priority 2019, dated 2021)
